Data on three molecules can be found in PMC3466195, “Potassium Acts as a GTPase-Activating Element on Each Nucleotide-Binding Domain of the Essential Bacillus subtilis EngA” (PLoS ONE, 2012).

The target in assay [1] is T1, B. subtilis EngA (Bacillus subtilis, UniProt P50743).
T1 construct: full-length EngA (named hereafter as EngA) and its two shortened EngA variants, GD1 and GD2-KH were overexpressed in E. coli; His-tag (from pET15b; purified on Ni-IDA) (N); made in house; host or cells: E. coli C41(DE3)
T1 sequence (P50743 1-436): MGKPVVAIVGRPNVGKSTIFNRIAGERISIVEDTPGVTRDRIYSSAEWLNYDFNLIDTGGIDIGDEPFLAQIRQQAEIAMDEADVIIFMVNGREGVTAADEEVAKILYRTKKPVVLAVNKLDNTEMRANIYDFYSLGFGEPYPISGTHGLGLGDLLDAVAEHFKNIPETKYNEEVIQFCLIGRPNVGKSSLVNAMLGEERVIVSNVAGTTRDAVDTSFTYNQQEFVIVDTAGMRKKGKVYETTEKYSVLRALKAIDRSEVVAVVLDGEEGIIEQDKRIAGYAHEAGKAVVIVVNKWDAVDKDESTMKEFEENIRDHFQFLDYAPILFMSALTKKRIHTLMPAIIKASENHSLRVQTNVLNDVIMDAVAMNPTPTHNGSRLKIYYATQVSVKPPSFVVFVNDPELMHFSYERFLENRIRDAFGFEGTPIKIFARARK
As to the kind of experiment: Fluorescence resonance energy transfer between tryptophan residues and MANT moiety. Format: binding. As to conditions: FRET Trp to MANT. On the procedure: Fluorescence measurements were performed essentially as described previously for the unmodified nucleotides or the N-methylanthraniloyl-GDP (MANT-GDP) analogue using a PTI QuantaMaster 4 spectrofluorimeter, [62]. Dissociation constants (K D) for nucleotides were calculated by monitoring intrinsic tryptophan fluorescence variation using 295 nm excitation wavelength, with a slit width of 2 nm, and scanning emission fluorescence between 310 and 400 nm (for the unmodified nucleotide) or 400 and 500 nm (for MANT-GDP), with a slit width of 4 nm. For the intrinsic tryptophan fluorescence, inner filter effect was corrected using N-Acetyltryptophanamide (NATA) as a reference. […] The fluorescence was normalized respective to the integrated value of the fluorescence peak obtained in the absence of unmodified nucleotide (between 310 and 400 nm) or MANT-GDP (between 400 and 500 nm). The data were fitted using the GraFit 5.0.11 software with the following equation: [drawing 1] where F is the relative fluorescence intensity in the presence of nucleotide, F min is the relative fluorescence in the absence of nucleotide, F max is the fluorescence intensity at saturating concentration of nucleotide, L is the nucleotide concentration, E is the protein concentration and K D is the dissociation constant of the protein-nucleotide complex.

Assay [2] has as its target T1, B. subtilis EngA. Put plainly: Nucleotide binding monitored by intrinsic tryptophan fluorescence. As to conditions: read-out: KD. On the procedure: (§1) Fluorescence measurements were performed essentially as described previously for the unmodified nucleotides or the N-methylanthraniloyl-GDP (MANT-GDP) analogue using a PTI QuantaMaster 4 spectrofluorimeter, [62]. Dissociation constants (K D) for nucleotides were calculated by monitoring intrinsic tryptophan fluorescence variation using 295 nm excitation wavelength, with a slit width of 2 nm, and scanning emission fluorescence between 310 and 400 nm (for the unmodified nucleotide) or 400 and 500 nm (for MANT-GDP), with a slit width of 4 nm. For the intrinsic tryptophan fluorescence, inner filter effect was corrected using N-Acetyltryptophanamide (NATA) as a reference. 1 µM NATA or 0.5 µM of YphC were mixed with 50 mM Tris/HCl pH 8, 2 mM MgCl2, NaCl or KCl and increasing amount of nucleotide (GDP, GMPPNP or MANT-GDP), as indicated in the figure legends. The fluorescence was normalized respective to the integrated value of the fluorescence peak obtained in the absence of unmodified nucleotide (between 310 and 400 nm) or MANT-GDP (between 400 and 500 nm). The data were fitted using the GraFit 5.0.11 software with the following equation: [drawing 1] where F is the relative fluorescence intensity in the presence of nucleotide, F min is the relative fluorescence in the absence of nucleotide, F max is the fluorescence intensity at saturating concentration of nucleotide, L is the nucleotide concentration, E is the protein concentration and K D is the dissociation constant of the protein-nucleotide complex.

The target of assay [3] is T2, GD1 (shortened B. subtilis EngA variant) (Bacillus subtilis, UniProt P50743).
T2 construct: two shortened EngA variants that only contain GD1 or GD2-KH; His-tag (from pET15b; purified on Ni-IDA) (N); made in house; host or cells: E. coli C41(DE3)
The description is as above. As to the method: as §1

Assay [4] addresses T3, GD2-KH (shortened B. subtilis EngA variant) (Bacillus subtilis, UniProt P50743).
T3 construct: two shortened EngA variants that only contain GD1 or GD2-KH; His-tag (from pET15b; purified on Ni-IDA) (N); made in house; host or cells: E. coli C41(DE3)
The description is as above. As to the method: as §1

Assay [5] deals with T4, EngA (Bacillus subtilis, UniProt P50743).
T4 construct: full-length EngA (named hereafter as EngA) and its two shortened EngA variants, GD1 and GD2-KH were overexpressed in E. coli; His-tag (from pET15b; purified on Ni-IDA) (N); made in house; host or cells: E. coli C41(DE3)
T4 sequence (P50743 1-436): T1 sequence (P50743 1-436)
As to the kind of experiment: Fluorescence-based Thermal Shift Assay (TSA). Type of assay: binding. As to conditions: EngA with 1 mM nucleotide; no effector Tm 41.5. As to the method: (§2) Assays were performed into a 96-well thin-wall PCR plate (BioRad) using an IQ5 96-well format real-time PCR instrument (Bio-Rad) over a temperature range from 20°C to 90°C with temperature increments of 0.2°C [64]. Assay samples (23 µl) contained 50 mM Tris/HCl pH 8, 0.5 mg/ml of EngA or 1.5 mg/ml of GD1 or GD2-KH, and concentration of salt and/or nucleotides as indicated, and 2 µl of SYPRO Orange solution (Molecular Probes, Eugene, OR, 500x in DMSO diluted 5 times in water) was added. The plates were heated and changes in fluorescence for the environmentally sensitive dye SYPRO Orange were monitored through a charge-coupled device (CCD) camera. The melting temperature (Tm) values for each protein were determined graphically from the fluorescence first derivative of the melting curves. The wavelengths for excitation and emission were 470 nm and 570 nm, respectively.

Assay [6] concerns the target T5, GD1 (Bacillus subtilis, UniProt P50743).
T5 construct: two shortened EngA variants that only contain GD1 or GD2-KH; His-tag (from pET15b; purified on Ni-IDA) (N); made in house; host or cells: E. coli C41(DE3)
T5 sequence (P50743 4-167 limits assumed): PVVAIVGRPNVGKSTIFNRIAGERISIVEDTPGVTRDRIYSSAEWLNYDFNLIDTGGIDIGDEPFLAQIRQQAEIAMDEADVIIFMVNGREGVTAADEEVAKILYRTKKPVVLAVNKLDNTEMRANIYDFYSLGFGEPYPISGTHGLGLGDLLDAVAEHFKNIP
As to the kind of experiment: Fluorescence-based Thermal Shift Assay (TSA). As to conditions: GD1 with 1 mM nucleotide; no effector Tm 51. Type of assay: binding. On the procedure:
as §2

The target in assay [7] is T6, GD2-KH (Bacillus subtilis, UniProt P50743).
T6 construct: two shortened EngA variants that only contain GD1 or GD2-KH; His-tag (from pET15b; purified on Ni-IDA) (N); made in house; host or cells: E. coli C41(DE3)
T6 sequence (P50743 173-436): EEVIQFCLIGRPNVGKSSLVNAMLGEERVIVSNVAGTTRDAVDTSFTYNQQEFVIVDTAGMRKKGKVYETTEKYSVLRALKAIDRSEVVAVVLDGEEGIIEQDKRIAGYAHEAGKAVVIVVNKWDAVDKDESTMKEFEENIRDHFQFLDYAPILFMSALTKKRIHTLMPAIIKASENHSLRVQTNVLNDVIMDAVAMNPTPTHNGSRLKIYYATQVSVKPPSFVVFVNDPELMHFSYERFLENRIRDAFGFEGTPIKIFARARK
As to the kind of experiment: Fluorescence-based Thermal Shift Assay (TSA). Format: binding. The note with it: GD2-KH with 1 mM nucleotide; no effector Tm 42.8. As to the method: as §2

For assay [8], the target named is T7, B. subtilis EngA (Bacillus subtilis, UniProt P50743).
T7 construct: full-length EngA (named hereafter as EngA) and its two shortened EngA variants, GD1 and GD2-KH were overexpressed in E. coli; His-tag (from pET15b; purified on Ni-IDA) (N); made in house; host or cells: E. coli C41(DE3)
Format: biochemical. As to conditions: K+ replaced by other monovalent cation, 1 mM GTP. As to the method: GTPase activities were determined using a coupled-enzymatic assay containing pyruvate kinase and lactate dehydrogenase as previously described. The proteins (2 µM or 8 µM of EngA in the presence of KCl or NaCl, respectively, and 4 µM for GD1 and 12.5 µM for GD2-KH) and the coupled assay system containing 50 mM Tris/HCl pH 8, 4 mM phosphoenol pyruvate, 0.4 mM NADH, 1 mM MgCl2, 30 µg pyruvate kinase and 15 µg lactate dehydrogenase, were mixed into a quartz cuvette (final volume of 750 µl) in the presence of GTP (up to 1 mM) and salts, either KCl or NaCl, as indicated in the figure legends. When the GTPase and XTPase activities of the wild-type EngA and the single point mutants were studied (Fig. 7), the assay medium (final volume of 500 µl) contained 3 mM MgCl2 and the pyruvate kinase was increased to 120 µg to ensure an immediate conversion of XDP back into XTP. The reaction was started by adding 3.2 µM or 0.8 µM of wild-type EngA or single point mutants in the absence or presence of 300 mM K^+, respectively. GTP or XTP hydrolysis was monitored by following the change in absorbance at 340 nm upon conversion of NADH to NAD^+, for 10 min at 37°C, using either a Hitachi U3350 or a Safas UVmc^2 spectrophotometer. The slope measured (ΔDO/min) was used to calculate the activity of the protein taking into account the εNADH340nm = 6220 l.mol^−1.cm^−1. Control experiments were systematically performed in the absence of nucleotides (protein alone) or in the absence of proteins (nucleotides alone) and the activities measured in all cases were negligible. Between many different EngA preparations, the specific activities measured at 1 mM GTP varied between 100–130 nmoles/min/mg protein.

In general, Kd refers to the constant that tells how readily two partners part at equilibrium. Regarding `CNc1ccccc1C(=O)O[C@H]1[C@@H](O)[C@H](n2cnc3c(=O)[nH]c(N)nc32)O[C@@H]1COP(=O)(O)OP(=O)(O)O` [mant-GDP, N-methylanthraniloyl-GDP], the Kd in assay [1] (300 mM KCl) is 2.9 ± 0.2 µM; in assay [1] (no salt), 3.1 ± 0.2 µM.

A word on the Tm: it is the temperature at which the thermal transition is half complete. For the molecule `Nc1nc2c(ncn2[C@@H]2O[C@H](COP(=O)(O)OP(=O)(O)NP(=O)(O)O)[C@@H](O)[C@H]2O)c(=O)[nH]1` [GMPPNP], the Kd in assay [2] (300 mM KCl) is 18.8 ± 2.8 µM; in assay [2] (300 mM NaCl), 16.5 ± 3.7 µM; in assay [2] (no salt (absence of K+), 2 mM MgCl2, 25°C), 25.7 ± 2.8 µM; in assay [3] (GD1, 300 mM KCl), 35.7 ± 4.9 µM; in assay [3] (GD1, 300 mM NaCl), 17.8 ± 2.4 µM; in assay [4] (300 mM KCl) it was 6.8 ± 2 µM. In assay [4] (300 mM NaCl), this molecule gave a Kd of 15.2 ± 1.3 µM. In addition, the figures for the Tm in assay [5], in assay [6] and in assay [7] were 48.8 °C, 55.5 °C and 48.3 °C, respectively.

For the molecule `[Na+]` [sodium], the “effect of salt on the GTPase activity of EngA” value in assay [8] is “no effect”.
